Reference: BindingDB's records for doi:10.1021/acsmedchemlett.8b00576 (Usona Institute, 2019)

Target: GTPase KRas (Homo sapiens, UniProt P01116)
Assay: Inhibition of GDP loaded biotin-labeled KRAS G12C mutant (unknown origin) assessed as reduction in guanine nucleotide exchange preincubated for 4 hrs followed by GST-RAF-RBD addition in presence of GTPgammaS by FRET assay

GTPase KRas, sequence (P01116 whole entry G12C): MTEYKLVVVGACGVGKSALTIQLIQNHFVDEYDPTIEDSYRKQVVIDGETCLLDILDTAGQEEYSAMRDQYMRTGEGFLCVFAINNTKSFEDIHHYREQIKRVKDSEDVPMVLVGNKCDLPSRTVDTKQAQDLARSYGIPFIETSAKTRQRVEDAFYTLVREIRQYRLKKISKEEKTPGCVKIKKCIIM

C=CC(=O)N1CCN2c3nc(N4CC(N(C)C)C4)nc4cc(-c5c(C)ccc6[nH]ncc56)c(Cl)c(c34)OC[C@@H]2C1
IC50: 21 nM
